Assay [1] deals with T1, myosin light chain kinase (MLCK) (Gallus gallus, UniProt P11799).
T1 construct: Calmodulin-independent myosin light chain kinase(CIM) of greater than 95 percent homogeneity is prepared by trypsin digestion of calmodulin-dependent MLCK; from tissue; host or cells: chicken gizzard (purified from tissue, then digested with TPCK-treated trypsin)
In words: Calcium-Calmodulin Independent Myosin Light Chain Kinase (MLCK) Assay. Type of assay: biochemical, chicken. The following applies: for IC50: calmodulin-independent MLCK (trypsin digested, chicken gizzard), peptide KKRPQRATSNVFS-NH2 50 μM, 100 uM ATP, pH 7.2; for inhibition at 100 µM: 100 μM compound, calmodulin-independent MLCK, printed in the IC50 (μM) column, read-out: percent inhibition at a dosage of 100 μM. The procedure: A. Enzyme Preparation. Calmodulin-independent myosin light chain kinase(CIM) of greater than 95 percent homogeneity is prepared by trypsin digestion of calmodulin-dependent MLCK which is prepared from chicken gizzard by the method of Ngai, P. J., Carruthers, C. A. and Walsh, M. P. (1984), Biochem. J. 218, pages 863-870, through the step employing diethylaminoethyl(DEAE)-Sephacel®, trademark of Pharmacia Fine Chemicals, Inc., New Market, N.J. 08854. The kinase solution containing 8.5 mg protein is adjusted to 0.5 mg/ml in 20 mM Tris/HCl, pH 7.5, 2 mM EGTA. An aliquot of 1 mg/ml of N-tosyl-L-phenylalanine-chloromethyl ketone (TPCK) treated trypsin is added to a final trypsin:MLCK ratio of 1:7.5 (mg/mg protein). Typically, the reaction is incubated for 6 minutes at 25° C.
MLCK is assayed using the synthetic peptide substrate KKRPQRATSNVFS-NH2, a thirteen amino acid fragment with a sequence corresponding to residues 11-23 of gizzard light chain except for a carboxy-terminal serine-NH2 as described in Kemp, G. E., Pearson, R. B. and House, C. (1983) Proc. Nat. Acad. Sci. U.S.A. 80, pages 7471-7475. The standard assay is performed in a total volume of 100 microliters (μl) containing 20 mM Tris-HCl, pH 7.2, 10 mM MgCl2, 100 uM [γ-^32 P] ATP with a specific activity of 300-1000 counts per minute (cpm) per picomole (pmol), 50 μM KKRPQRATSNVFS-NH2, 0.02 μg enzyme. Calmodulin was added at the concentrations indicated in the text and tables, and assays contained 1 mM EGTA or 1 mM EGTA plus approximately 200 μM excess free calcium when calcium-dependent activity was measured. Calcium-independent activity is negligible in the calcium dependent gizzard enzyme. Assays are initiated by addition of adenosine triphosphate (ATP) and stopped by addition of 200 μM HCl. Phosphate incorporated into the basic substrate is measured by spotting an aliquot on phosphocellulose filter paper, washing and counting the papers. The results are given in IC50 values. An IC50 indicates the dosage of compound in micromoles (μM) which inhibits MLCK by 50 percent. […] Results given in percentages (%) indicates the percent inhibition at a dosage of 100 μM.

Assay [2] deals with conscious spontaneously hypertensive rats (SHR). In words: Antihypertensive Activity in Rats (conscious spontaneously hypertensive rats, SHR). The class given is in vivo, rat. Particulars: for Change in blood pressure (mean change in mean blood pressure): male SHR, placebo -5. The source says:
The ability of the compounds of the present invention to lower blood pressure can be assessed in conscious spontaneously hypertensive rats (SHR). SHR (males) are purchased from Taconic Farms, Germantown, N.Y. and are approximately 16-17 weeks old when used to test the pharmacological effects. Rats, under ether anesthesia, receive a polyethylene tubing (PE50 fused to PE10) inserted via the caudal artery into the abdominal aorta to just below the renal arteries. This catheter is connected to a Spectromed pressure transducer and the direct arterial blood pressure is continuously recorded on an oscillographic recorder. Heart rate is determined via manual count of the pressure waves at a fast paper trace. […] If drugs are administered orally, compounds are suspended in 0.4% aqueous methylcellulose and delivered via oral gavage with an oral feeding needle. Rats are fasted overnight prior to intravenous or oral tests. All incisions are closed and the rats are placed into plexiglass restrainers where they quickly regain consciousness. At least 90 minutes are allowed for the rats to fully regain consciousness and achieve stable blood pressures and heart rates.
Intravenously administered drugs are usually given as a rapid bolus. […] In some cases drugs are given by constant intravenous infusion. The 0.4% aqueous methylcellulose is used as a placebo treatment for compounds given orally. Values are presented as the mean changes in mean blood pressure (MBP) in millimeters of mercury (mm Hg). Drug induced changes are compared with the changes in an appropriate placebo group. The compound is administered intravenously at a dosage of 1.0 to 5.0 milligrams per kilogram (mpk) body weight. The following results are representative for 1-((7-bromo-9H-fluoren-2-yl)sulfonyl)hexahydro-1H-1,4-diazepine from examples 4 and 27 (Compound A): […]

SMILES strings stand for the structures.

We go through 14 compounds from patent publication US5030631A, “Tricylclic arylsulfonamides” (Schering Corporation, priority 1989, dated 1991).

A word on the IC50: it is the point on the concentration scale where inhibition reaches its midpoint. Usually inhibition stands for the percentage by which the read-out fell short of the control.

T1 sequence (P11799 1217-1713 limits assumed): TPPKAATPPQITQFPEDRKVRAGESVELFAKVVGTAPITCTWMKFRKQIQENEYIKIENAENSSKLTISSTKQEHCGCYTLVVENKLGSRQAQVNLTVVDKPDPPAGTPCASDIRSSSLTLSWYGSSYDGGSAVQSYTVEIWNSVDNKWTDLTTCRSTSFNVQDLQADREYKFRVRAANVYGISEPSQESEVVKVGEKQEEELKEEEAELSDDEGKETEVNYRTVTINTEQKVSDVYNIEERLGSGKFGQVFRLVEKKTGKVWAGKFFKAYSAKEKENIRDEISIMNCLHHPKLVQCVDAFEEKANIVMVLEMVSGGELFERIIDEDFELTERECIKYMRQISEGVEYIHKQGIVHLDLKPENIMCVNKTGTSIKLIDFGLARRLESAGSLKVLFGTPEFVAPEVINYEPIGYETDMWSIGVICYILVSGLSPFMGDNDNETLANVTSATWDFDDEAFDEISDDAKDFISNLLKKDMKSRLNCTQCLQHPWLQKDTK

`O=S(=O)(c1cc2ccccc2c2ccccc12)N1CCCNCC1` [Example 26]: the half-maximal inhibitory concentration (IC50) in assay [1] was determined as 3.5 µM.
`O=S(=O)(c1cccc2nc3ccccc3cc12)N1CCCNCC1` [Example 21]: in assay [1], the half-inhibitory concentration (IC50) was 100 µM.
As to `O=S(=O)(c1cccc2cc3ccccc3cc12)N1CCCNCC1` [Example 16], the half-maximal inhibitory concentration (IC50) in assay [1] stood at 17 µM.
With `CC1(C)c2cc(Br)ccc2-c2ccc(S(=O)(=O)N3CCCNCC3)cc21` [Example 29], the inhibition at 100 µM in assay [1] amounted to 40%.
As to `O=S(=O)(c1c2ccccc2cc2ccccc12)N1CCCNCC1` [Example 25], the IC50 in assay [1] amounted to 5 µM.
For `O=S(=O)(c1cc2ccccc2c2ccccc12)N1CCCNCC1` [Example 18], the IC50 in assay [1] was 4.8 µM.
On the same count and under the same terms, then `O=S(=O)(c1ccc2c(ccc3ccccc32)c1)N1CCCNCC1` [Example 19], with 11 µM; and `O=S(=O)(c1cccc2c1cnc1ccccc12)N1CCCNCC1` [Example 24], with 35 µM.
Same read-out and setting: then `O=S(=O)(c1ccc2cc3ccccc3cc2c1)N1CCCNCC1` [Example 17], with 50 µM.
On to `O=S(=O)(c1ccc2c(c1)Cc1cc(Br)ccc1-2)N1CCCNCC1` [Compound A, 1-((7-bromo-9H-fluoren-2-yl)sulfonyl)hexahydro-1H-1,4-diazepine], for which, in assay [1], the 50% inhibitory concentration (IC50) worked out at 76 µM. Also, the “Change in blood pressure (mean change in mean blood pressure)” value in assay [2] (intravenous, 1.0 mpk) is -13 mm Hg; in assay [2] (intravenous, 2.5 mpk), -25 mm Hg; in assay [2] (intravenous, 5.0 mpk), -30 mm Hg. Further, the “reduction in blood pressure upon intravenous administration” value in assay [2] (intravenous, 1.0 to 5.0 mpk, SHR) is recorded as “dose-dependent reduction in blood pressure”. Further, the “magnitude of the effect at the highest dose compared with the placebo” value in assay [2] (intravenous, 5.0 mpk, SHR, compared with placebo) is on record as “marked reduction”. In addition, in assay [2] (oral, 50 mpk, SHR), the “activity upon oral administration” value was “does not show activity”.
Take `O=S(=O)(c1ccc2ncc3ccccc3c2c1)N1CCCNCC1` [Example 22]: the IC50 in assay [1] is 32 µM.
On to `O=S(=O)(c1ccc2c(cnc3ccccc32)c1)N1CCCNCC1` [Example 23], for which the IC50 in assay [1] was found to be 65 µM.
For the compound `O=S(=O)(c1ccc2c(Br)cc3ccccc3c2c1)N1CCCNCC1` [Example 20], the 50% inhibitory concentration (IC50) in assay [1] amounted to 10 µM.
As for `N=C(N)N1CCCN(S(=O)(=O)c2ccc3c(c2)Cc2cc(Br)ccc2-3)CC1` [Example 28], the inhibition at 100 µM in assay [1] is 55%.
